These results are taken from patent publication US4770870A, “Method for reducing pain associated with the administration of 4-sulfido-oxazaphosphorines and 4-sulfoalkylthio-oxazaphorphorines” (Asta Pharma Aktiengesellschaft, priority 1981, dated 1988).

The conditions of data set [1]: mouse, in vivo.
In another data set the test system is Human mammary-carcinoma. Briefly: Human mammary-carcinoma heterotransplanted to nu/nu mice. In kind it is in vivo, human tumor in mouse (nu/nu). The following applies: cyclophosphamide single injection of 100 mg/kg. As to the method: (The experimental procedure was carried out as follows according to: C. O. Polvsen, G. K. Jacobsen, J. Rygaard, The Laboratory Animal in Drug Testing, Editor A. Spiegel, pages 63-73, Fischer-Verlag, Stuttgart, (1973).
(a) Human mammary-carcinoma from operation material of a women's clinic were heterotransplanted to thymusaplastic nu/ny mice. After the 23-25th passage in each case by implantation of a thin tumor section having a diameter of 8-10 mm into the milk ducts after growth of the implants to 0.15-0.25 grams the animals were subjected to therapy and the curative effect determined through measuring the tumor surface.

The nature of data set [2]: Subchronic toxicity, NMRI-mouse. The following applies: same pattern without cysteine, total dosage 3 mmol/kg.
The nature of data set [3]: Acute toxicity (LD50), single intravenous dose, species not stated. As to conditions: in vivo.

Counter-ions that a name gives are not always drawn. Like-named read-outs stand apart in the source and are kept apart here. A value given as a limit tells only on which side of the number the result lay.

Consider `O=P1(NCCCl)OCCCN1CCCl` (centres unmarked) [ifosfamide], for which, under “rat, in vivo”, the “Approximate threshold concentration inducing venous pain” value is above 10 mg/mL; the “Reaction (+ = reaction, - = no reaction)” value was “+”; the “concentration at which no reaction was induced” value is “below 10 mg/ml”.
Take `O=P1(N(CCCl)CCCl)NC(SCC(S)CS(=O)(=O)O)CCO1` (centres unmarked) [cyclohexylamine salt, 3-[2-(bis-(2-chloroethyl)-amine-2-oxo-tetrahydro-2H-1,3,2-oxazaphosphorine-4-yl-thio]-2-mercaptopropanesulfonic acid-cyclohexylamine salt]: in data set [1], the “increase of the LD50” value was 2-3 fold.
`O=P1(N(CCCl)CCCl)NCCCO1` (centres unmarked) [cyclophosphamide]: the “tumor growth” value in the data set with Human mammary-carcinoma was “checking of the tumor growth”. The “Approximate threshold concentration inducing venous pain” value (Table 1, sleeping rat) was found to be 30 mg/mL. Further, where the note is “sleeping rat”, the “concentration at which no reaction was induced” value is listed as “below 30 mg/ml”. Besides, under “sleeping rat, tail vein infusion”, the “Reaction (+ = reaction, - = no reaction)” value is given as “+”. Further, the deaths of mice in data set [2] came out at 6 mice. The same compound gave an LD50 in data set [3] of 244 mg/kg.
For `Cl` [HCl pH 4, hydrochloric acid], under “rat, in vivo”, the “Reaction (+ = reaction, - = no reaction)” value is recorded as “-” and the “reaction” value is reported as “Neither”.
In the case of `CC(=O)N[C@@H](CS)C(=O)O` [NAC, N-acetyl-cysteine], the “prevention of pain induced by mafosfamide lysine salt” value (5 molar mesna or NAC solution) is “completely prevented the pain-inducing effect of mafosfamide lysine salt”.
For `O=S(=O)([O-])CCS.[Na+]`, the “prevention of pain induced by mafosfamide lysine salt” value (rat, in vivo) is “completely prevented the pain-inducing effect of mafosfamide lysine salt”.
